From patent publication US6586422B2, “Pyrazine and triazine derivatives of 1,2,4,5-tetrahydro-Benzo or Thieno [d] azepine” (Hoffman-La Roche Inc., priority 2000, dated 2003) come the findings set out here.

The structures appear in SMILES notation.

The target in the assay is T1, rat mGluR1a receptor (Rattus norvegicus, UniProt P23385).
T1 construct: expressed in transfected cells; host or cells: HEK 293 cells (transient transfection; membranes used)
T1 sequence (P23385 19-1199): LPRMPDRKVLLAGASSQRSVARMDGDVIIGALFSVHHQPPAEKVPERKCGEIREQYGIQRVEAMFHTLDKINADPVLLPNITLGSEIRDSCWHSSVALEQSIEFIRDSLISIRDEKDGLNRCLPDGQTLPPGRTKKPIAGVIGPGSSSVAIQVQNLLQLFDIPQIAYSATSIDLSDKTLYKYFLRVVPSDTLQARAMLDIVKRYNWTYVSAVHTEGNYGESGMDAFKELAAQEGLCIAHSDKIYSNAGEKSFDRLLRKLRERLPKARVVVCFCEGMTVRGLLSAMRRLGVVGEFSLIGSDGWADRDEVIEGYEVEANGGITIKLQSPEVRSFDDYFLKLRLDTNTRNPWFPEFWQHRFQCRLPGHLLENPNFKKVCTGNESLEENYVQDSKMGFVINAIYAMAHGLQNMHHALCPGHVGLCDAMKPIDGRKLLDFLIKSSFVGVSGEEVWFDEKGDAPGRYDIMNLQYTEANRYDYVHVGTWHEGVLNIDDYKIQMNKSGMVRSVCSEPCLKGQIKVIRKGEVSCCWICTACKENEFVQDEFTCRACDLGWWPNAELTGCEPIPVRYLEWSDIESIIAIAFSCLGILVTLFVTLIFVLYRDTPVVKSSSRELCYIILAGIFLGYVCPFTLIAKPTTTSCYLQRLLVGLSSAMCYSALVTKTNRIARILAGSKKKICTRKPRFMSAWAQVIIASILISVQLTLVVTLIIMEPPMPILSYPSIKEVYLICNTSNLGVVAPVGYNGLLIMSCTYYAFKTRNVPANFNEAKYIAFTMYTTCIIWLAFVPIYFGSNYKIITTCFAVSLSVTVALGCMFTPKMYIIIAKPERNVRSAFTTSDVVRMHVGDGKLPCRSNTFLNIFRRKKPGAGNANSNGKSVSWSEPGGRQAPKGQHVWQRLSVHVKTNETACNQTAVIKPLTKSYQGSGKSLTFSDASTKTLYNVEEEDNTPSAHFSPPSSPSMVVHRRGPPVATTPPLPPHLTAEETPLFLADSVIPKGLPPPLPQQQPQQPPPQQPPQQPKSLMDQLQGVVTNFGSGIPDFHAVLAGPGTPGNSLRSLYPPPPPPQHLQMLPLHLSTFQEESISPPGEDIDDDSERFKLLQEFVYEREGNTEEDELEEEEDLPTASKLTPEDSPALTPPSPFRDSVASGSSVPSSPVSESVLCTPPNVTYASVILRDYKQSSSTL
Briefly: Binding assay for the characterization of mGluR 1 antagonistic properties (tritiated radioligand displacement, membranes of transfected HEK 293 cells). The note with it: membranes of HEK 293 cells transiently transfected with rat mGluR1a; radioligand 3 nM; 1 hour at room temperature; read-out: B-IC50. How it is done:
Binding Assay for the Characterization of mGluR 1 Antagonistic Properties
Binding assay with tritiated 1-ethyl-2-methyl-6-oxo-4-(1,1,2-tritritio-1,2,4,5-tetrahydro-benzo[d]azepin-3-yl)-1,6-dihydro-pyrimidine-5-carbonitrile (Eur. Pat. Appl. EP 1 074 549 A2): HEK 293 cells were transiently transfected with the rat mGluR1a receptor. The cells were collected and washed 3 times with PBS. The cell pellets were frozen at −80° C. Membranes were prepared from HEK 293 cells transfected with the rat mGluR1a receptor and used in the binding experiments at 10 μg proteins per assay after resuspension in a HEPES NaOH 20 mM, pH=7.4 binding buffer. 1-Ethyl-2-methyl-6-oxo-4-(1,1,2-tritritio-1,2,4,5-tetrahydro-benzo[d]azepin-3-yl)-1,6-dihydro-pyrimidine-5-carbonitrile (S.A 33.4 Ci/mmol) was used at 3 nM final concentration. The incubation with variable concentrations of potential inhibitors was performed for 1 hour at room temperature, the incubate was then filtered onto GF/B glass fiber filter preincubated 1 hour in PEI 0,1% and washed 3 times with 1 ml of cold binding buffer. The radioactivity retained on the unifilter 96 was counted using a Topcount β counter. After correction for non specific binding the data were normalized and the IC50 value calculated using a 4 parameters logistic equation which was fitted to the inhibition curve.
(In general: Loss of bound radioactivity is the signal in a displacement assay; it reports binding, not function.)
`CC(C)(C)OC(=O)NCCNc1nnc(C#N)c(N2CCc3ccccc3CC2)n1` [Example 8, {2-[6-Cyano-5-(1,2,4,5-tetrahydro-benzo[d]azepin-3-yl)-[1,2,4]triazin-3-ylamino]-ethyl}-Carbamic Acid Tert-Butyl Ester]: the IC50 is 27 nM.

Consider `CC(O)CNc1nnc(C#N)c(N2CCc3ccccc3CC2)n1` (racemic) [Example 6, (RS)-3-(2-Hydroxy-propylamino)-5-(1,2,4,5-tetrahydro-benzo[d]azepin-3-yl)-[1,2,4]triazine-6-carbonitrile], for which the IC50 came out at 27 nM.

For `N#Cc1nnc(NN)nc1N1CCc2ccccc2CC1` [Example 7, 3-Hydrazino-5-(1,2,4,5-tetrahydro-benzo[d]azepin-3-yl)-[1,2,4]triazine-6-carbonitrile], the IC50 stood at 370 nM.

In the case of `N#Cc1nnc(NCC2CC2)nc1N1CCc2ccccc2CC1` [Example 4, 3-(Cyclopropylmethyl-amino)-5-(1,2,4,5-tetrahydro-benzo[d]azepin-3-yl)-[1,2,4]triazine-6-carbonitrile], the IC50 is 5 nM.

Turning to `COCCOc1nnc(C#N)c(N2CCc3ccccc3CC2)n1` [Example 1, 3-(2-Methoxy-ethoxy)-5-(1,2,4,5-tetrahydro-benzo[d]azepin-3-yl)-[1,2,4]triazine-6-carbonitrile], the concentration for half-maximal inhibition (IC50) was 3000 nM.

Take `N#Cc1nnc(N)nc1N1CCc2ccccc2CC1` [Example 2, 3-Amino-5-(1,2,4,5-tetrahydro-benzo[d]azepin-3-yl)-[1,2,4]triazine-6-carbonitrile]: the IC50 was determined as 27 nM.

For `Cc1nc(N2CCc3ccccc3CC2)c(C#N)nc1-c1ccccc1` [Example 14, 5-Methyl-6-phenyl-3-(1,2,4,5-tetrahydro-benzo[d]azepin-3-yl)-pyrazine-2-carbonitrile], the half-inhibitory concentration (IC50) stood at 45 nM.

`N#Cc1nnc(NCCO)nc1N1CCc2ccccc2CC1` [Example 5, 3-(2-Hydroxy-ethylamino)-5-(1,2,4,5-tetrahydro-benzo[d]azepin-3-yl)-[1,2,4]triazine-6-carbonitrile]: the IC50 amounted to 31 nM.

On to `N#Cc1nnc(NCCc2cccnc2)nc1N1CCc2ccccc2CC1` [Example 9, 3-(2-Pyridin-3-yl-ethylamino)-5-(1,2,4,5-tetrahydro-benzo[d]azepin-3-yl)-[1,2,4]triazine-6-carbonitrile], for which the IC50 was 29 nM.

Turning to `N#Cc1ncc(NCCO)nc1N1CCc2ccccc2CC1` [Example 15, 5-(2-Hydroxy-ethylamino)-3-(1,2,4,5-tetrahydro-benzo[d]azepin-3-yl)-pyrazine-2-carbonitrile], the IC50 stood at 500 nM.

In the case of `CN(C)c1nnc(C#N)c(N2CCc3ccccc3CC2)n1` [Example 3, 3-Dimethylamino-5-(1,2,4,5-tetrahydro-benzo[d]azepin-3-yl)-[1,2,4]triazine-6-carbonitrile], the IC50 came out at 1380 nM.

For the compound `N#Cc1nccnc1N1CCc2ccccc2CC1` [Example 13, 3-(1,2,4,5-Tetrahydro-benzo[d]azepin-3-yl)-pyrazine-2-carbonitrile], the IC50 is 470 nM.

By IC50 is commonly meant the concentration needed to halve the response being measured.
